Reference: PMC3763632, “Radiosynthesis and Radiotracer Properties of a 7-(2-[^18F]Fluoroethoxy)-6-methoxypyrrolidinylquinazoline for Imaging of Phosphodiesterase 10A with PET” (Pharmaceuticals, 2012)
Where “and” joins values, the source holds several entries; their conditions need not be identical. Equal entries are not always repeated.

Assays:
PDE10A = test: In vivo blocking study (pre-injection of PDE10A inhibitor); parameters: species or system mice
Description: The observed slightly increase in the uptake of radioactivity in most organs might be caused by an increase in the free fraction of [^18F]IV in plasma or changes in physiological parameters such as blood flow due to high concentrations of the blocking compounds.
Specificity of brain and in particular striatal uptake of [^18F]IV was investigated in blocking studies by intraperitoneal injection of 10 mg/kg of I [31] […] (n = 3), dissolved in 200 µL saline at 10 min before the radiotracer. Mice were sacrificed at 60 min p.i., and the radioligand uptake was determined as described above. Data listed in table 2 are given as mean values ± standard deviation (SD).

[1] = Biodistribution after i.v. injection; type: in vivo, female CD-1 mice
Description: The organ distribution of [^18F]IV after i.v. injection was investigated in female CD-1 mice. Time-activity data for ^18F corresponding uptake in peripheral organs, in the brain and in particular in the striatum at 5, 30, 60 and 120 min p.i. are presented in Table 2.
Conscious mice received a tail-vein injection of about 300 kBq of [^18F]IV, dissolved in 200 µL isotonic saline. At 5, 30, 60 and 120 min p.i. animals (n = 3–6 per time) were anaesthetized, and blood and urine samples were taken. After sacrifice, organs of interest were removed, separated, weighed, and radioactivity was measured in a calibrated γ-counter (Wallac WIZARD, Perkin Elmer, Waltham, MA, USA). Striatum was dissected from the brain and investigated separately. The percentage of the injected dose per gram of wet tissue (% ID/g) was calculated by the quotient of tissue counts and initial dose counts, and weight of the tissue sample.

[2] = blocking with 10 mg/kg I, 60 min p.i.
[3] = blocking with 10 mg/kg MP-10, 60 min p.i.

## COc1cc2c(N3CC[C@@H](Oc4cnc5ccccc5n4)C3)ncnc2cc1OCC[18F] [[^18F]IV, (R)-7-(2-[^18F]Fluoroethoxy)-6-methoxy-4-(3-(quinoxalin-2-yloxy)pyrrolidin-1-yl)quinazoline]
PDE10A; 10 mg/kg i.p. 10 min before radiotracer, 60 min p.i., p > 0.05
  change in accumulated radioactivity in PDE10A-expressing organs after pre-injection of MP-10 or compound I: no significant changes
PDE10A; [2]
  18F uptake, Adrenals: 51.1 ± 17.9 % ID/g
  18F uptake, Bladder: 2.20 ± 0.49 % ID/g
  18F uptake, Blood: 1.72 ± 0.16 % ID/g
  18F uptake, Brain: 1.13 ± 0.17 % ID/g
  18F uptake, Colon: 1.07 ± 0.22 % ID/g
  18F uptake, Femurs: 1.62 ± 0.72 % ID/g
  18F uptake, Femurs (fl.) (flushed): 0.81 ± 0.13 % ID/g
  18F uptake, Gonads: 3.30 ± 0.29 % ID/g
  18F uptake, Heart: 2.30 ± 0.22 % ID/g
  18F uptake, Intestine: 44.3 ± 9.58 % ID/g
  18F uptake, Kidneys: 4.01 ± 0.54 % ID/g
  18F uptake, Liver: 12.9 ± 1.08 % ID/g
  18F uptake, Lungs: 2.62 ± 0.44 % ID/g
  18F uptake, Muscles: 1.27 ± 0.25 % ID/g
  18F uptake, Pancreas: 2.25 ± 0.26 % ID/g
  18F uptake, Plasma: 2.70 ± 0.24 % ID/g
  18F uptake, Skin: 2.26 ± 0.82 % ID/g
  18F uptake, Spleen: 2.48 ± 0.68 % ID/g
  18F uptake, Stomach: 13.8 ± 1.65 % ID/g
  18F uptake, Striatum: 1.28 ± 0.27 % ID/g
  18F uptake, Thymus: 2.22 ± 0.08 % ID/g
  18F uptake, Urine: 18.0 ± 9.26 % ID/g
PDE10A; [3]
  18F uptake, Adrenals: 36.0 ± 9.51 % ID/g
  18F uptake, Bladder: 2.93 ± 0.51 % ID/g
  18F uptake, Blood: 1.85 ± 0.50 % ID/g
  18F uptake, Brain: 1.30 ± 0.20 % ID/g
  18F uptake, Colon: 1.78 ± 0.78 % ID/g
  18F uptake, Femurs: 1.73 ± 0.58 % ID/g
  18F uptake, Femurs (fl.) (flushed): 0.92 ± 0.23 % ID/g
  18F uptake, Gonads: 4.10 ± 1.41 % ID/g
  18F uptake, Heart: 2.89 ± 0.42 % ID/g
  18F uptake, Intestine: 14.8 ± 4.16 % ID/g
  18F uptake, Kidneys: 5.87 ± 1.56 % ID/g
  18F uptake, Liver: 17.7 ± 3.87 % ID/g
  18F uptake, Lungs: 2.95 ± 0.86 % ID/g
  18F uptake, Muscles: 1.29 ± 0.37 % ID/g
  18F uptake, Pancreas: 3.19 ± 0.91 % ID/g
  18F uptake, Plasma: 3.34 ± 1.00 % ID/g
  18F uptake, Skin: 2.43 ± 0.44 % ID/g
  18F uptake, Spleen: 3.00 ± 0.79 % ID/g
  18F uptake, Stomach: 14.6 ± 7.83 % ID/g
  18F uptake, Striatum: 1.38 ± 0.30 % ID/g
  18F uptake, Thymus: 2.55 ± 0.62 % ID/g
  18F uptake, Urine: 14.7 ± 7.17 % ID/g
[1]; 30 min p.i., mice
  striatum-to-blood ratio: 1.0
[1]; 60 min p.i., mice
  striatum-to-blood ratio: 0.8
[1]; 120 min p.i., mice
  striatum-to-blood ratio: 0.8
[1]; control, 5 min p.i.
  18F uptake, Adrenals: 25.4 ± 5.87 % ID/g Wet Weight
  18F uptake, Bladder: 1.85 ± 0.39 % ID/g Wet Weight
  18F uptake, Blood: 1.88 ± 0.08 % ID/g Wet Weight
  18F uptake, Brain: 1.99 ± 0.21 % ID/g Wet Weight
  18F uptake, Colon: 0.55 ± 0.05 % ID/g Wet Weight
  18F uptake, Femurs: 2.00 ± 0.36 % ID/g Wet Weight
  18F uptake, Femurs (fl.) (flushed): 1.11 ± 0.32 % ID/g Wet Weight
  18F uptake, Gonads: 2.58 ± 0.46 % ID/g Wet Weight
  18F uptake, Heart: 4.01 ± 0.47 % ID/g Wet Weight
  18F uptake, Intestine: 13.5 % ID/g Wet Weight and 13.5 ± 4.15 % ID/g Wet Weight
  18F uptake, Kidneys: 7.65 ± 0.54 % ID/g Wet Weight
  18F uptake, Liver: 20.5 % ID/g Wet Weight and 20.5 ± 1.87 % ID/g Wet Weight
  18F uptake, Lungs: 4.01 ± 0.51 % ID/g Wet Weight
  18F uptake, Muscles: 1.75 ± 0.12 % ID/g Wet Weight
  18F uptake, Pancreas: 5.19 ± 0.42 % ID/g Wet Weight
  18F uptake, Plasma: 3.97 ± 1.41 % ID/g Wet Weight
  18F uptake, Spleen: 4.23 ± 0.51 % ID/g Wet Weight
  18F uptake, Stomach: 6.14 ± 2.04 % ID/g Wet Weight
  18F uptake, Striatum: 2.3 % ID/g Wet Weight and 2.32 % ID/g Wet Weight and 2.32 ± 0.49 % ID/g Wet Weight
  18F uptake, Thymus: 3.10 ± 0.45 % ID/g Wet Weight
  18F uptake, Urine: 56.4 % ID/g Wet Weight and 56.4 ± 105 % ID/g Wet Weight
[1]; control, 30 min p.i.
  18F uptake, Bladder: 3.51 ± 1.39 % ID/g Wet Weight
  18F uptake, Blood: 1.69 ± 0.38 % ID/g Wet Weight
  18F uptake, Brain: 1.54 ± 0.30 % ID/g Wet Weight
  18F uptake, Colon: 0.88 ± 0.44 % ID/g Wet Weight
  18F uptake, Femurs: 2.14 ± 1.13 % ID/g Wet Weight
  18F uptake, Femurs (fl.) (flushed): 0.67 ± 0.24 % ID/g Wet Weight
  18F uptake, Gonads: 3.94 ± 0.84 % ID/g Wet Weight
  18F uptake, Heart: 2.93 ± 0.71 % ID/g Wet Weight
  18F uptake, Intestine: 43.2 ± 21.9 % ID/g Wet Weight
  18F uptake, Kidneys: 5.34 ± 1.4 % ID/g Wet Weight
  18F uptake, Liver: 16.4 ± 4.00 % ID/g Wet Weight
  18F uptake, Lungs: 3.51 ± 1.26 % ID/g Wet Weight
  18F uptake, Muscles: 1.31 ± 0.32 % ID/g Wet Weight
  18F uptake, Pancreas: 3.14 ± 0.70 % ID/g Wet Weight
  18F uptake, Plasma: 2.87 ± 0.54 % ID/g Wet Weight
  18F uptake, Spleen: 2.85 ± 0.60 % ID/g Wet Weight
  18F uptake, Stomach: 15.8 ± 6.09 % ID/g Wet Weight
  18F uptake, Striatum: 1.69 ± 0.44 % ID/g Wet Weight
  18F uptake, Thymus: 2.61 ± 0.50 % ID/g Wet Weight
  18F uptake, Urine: 18.5 ± 16.8 % ID/g Wet Weight
[1]; control, 60 min p.i.
  18F uptake, Adrenals: 28.2 ± 11.4 % ID/g Wet Weight
  18F uptake, Bladder: 2.60 ± 0.78 % ID/g Wet Weight
  18F uptake, Blood: 1.45 ± 0.20 % ID/g Wet Weight
  18F uptake, Brain: 1.08 ± 0.26 % ID/g Wet Weight
  18F uptake, Colon: 1.08 ± 0.43 % ID/g Wet Weight
  18F uptake, Femurs: 2.95 ± 3.73 % ID/g Wet Weight
  18F uptake, Femurs (fl.) (flushed): 0.58 ± 0.42 % ID/g Wet Weight
  18F uptake, Gonads: 3.50 ± 1.22 % ID/g Wet Weight
  18F uptake, Heart: 2.16 ± 0.45 % ID/g Wet Weight
  18F uptake, Intestine: 42.8 % ID/g Wet Weight and 42.8 ± 33.5 % ID/g Wet Weight
  18F uptake, Kidneys: 4.29 ± 0.93 % ID/g Wet Weight
  18F uptake, Liver: 14.5 ± 4.54 % ID/g Wet Weight
  18F uptake, Lungs: 2.37 ± 0.62 % ID/g Wet Weight
  18F uptake, Muscles: 1.22 ± 0.28 % ID/g Wet Weight
  18F uptake, Pancreas: 2.77 ± 0.85 % ID/g Wet Weight
  18F uptake, Plasma: 2.59 ± 0.36 % ID/g Wet Weight
  18F uptake, Spleen: 2.30 ± 0.25 % ID/g Wet Weight
  18F uptake, Stomach: 12.6 ± 5.08 % ID/g Wet Weight
  18F uptake, Striatum: 1.14 ± 0.29 % ID/g Wet Weight
  18F uptake, Thymus: 2.08 ± 0.51 % ID/g Wet Weight
  18F uptake, Urine: 23.1 ± 9.31 % ID/g Wet Weight
[1]; control, 60 min p.i., single values, n = 2
  18F uptake, Skin: 1.45 % ID/g Wet Weight and 1.17 % ID/g Wet Weight
[1]; control, 120 min p.i.
  18F uptake, Adrenals: 19.3 ± 13.2 % ID/g Wet Weight
  18F uptake, Bladder: 1.62 ± 0.28 % ID/g Wet Weight
  18F uptake, Blood: 1.05 ± 0.10 % ID/g Wet Weight
  18F uptake, Brain: 0.77 ± 0.10 % ID/g Wet Weight
  18F uptake, Colon: 3.49 ± 2.41 % ID/g Wet Weight
  18F uptake, Femurs: 1.61 ± 0.35 % ID/g Wet Weight
  18F uptake, Femurs (fl.) (flushed): 1.15 ± 0.18 % ID/g Wet Weight
  18F uptake, Gonads: 1.64 ± 0.26 % ID/g Wet Weight
  18F uptake, Heart: 1.33 ± 0.20 % ID/g Wet Weight
  18F uptake, Intestine: 49.3 ± 8.03 % ID/g Wet Weight
  18F uptake, Kidneys: 2.13 ± 0.44 % ID/g Wet Weight
  18F uptake, Liver: 7.05 % ID/g Wet Weight and 7.05 ± 1.10 % ID/g Wet Weight
  18F uptake, Lungs: 1.46 ± 0.26 % ID/g Wet Weight
  18F uptake, Muscles: 0.66 ± 0.01 % ID/g Wet Weight
  18F uptake, Pancreas: 1.41 ± 0.07 % ID/g Wet Weight
  18F uptake, Plasma: 2.13 ± 0.80 % ID/g Wet Weight
  18F uptake, Spleen: 1.21 ± 0.24 % ID/g Wet Weight
  18F uptake, Stomach: 10.1 ± 5.96 % ID/g Wet Weight
  18F uptake, Striatum: 0.83 ± 0.10 % ID/g Wet Weight
  18F uptake, Thymus: 1.26 ± 0.07 % ID/g Wet Weight
  18F uptake, Urine: 30.9 % ID/g Wet Weight and 30.9 ± 8.06 % ID/g Wet Weight
[1]; mice, time not specified
  uptake of radioactivity in femur: ~ 2 % ID/g
  uptake of radioactivity in femur after removal of bone marrow: about 1 % ID/g
